Measurements reported in PubChem BioAssay (NCI).
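Test compounds were applied to cells in 96-well plates for 48 hours at 5 doses. At the GI50, growth is halved. TGI marks complete inhibition of growth.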

What was measured:
Assay in all cases: DTP human tumour cell line panel, 48 h
NCI-H522 lung = system: NCI-H522 lung
MDA-MB-231 breast = system: MDA-MB-231 breast
U251 CNS = system: U251 CNS
T-47D breast = system: T-47D breast
HCC-2998 colon = system: HCC-2998 colon
SNB-75 CNS = system: SNB-75 CNS
OVCAR-3 ovarian = system: OVCAR-3 ovarian
SF-295 CNS = system: SF-295 CNS
OVCAR-5 ovarian = system: OVCAR-5 ovarian
TK-10 renal = system: TK-10 renal

Row | Structure (SMILES) | GI50 (NCI-H522 lung) [µM] | TGI (NCI-H522 lung) [µM] | GI50 (MDA-MB-231 breast) [µM] | TGI (MDA-MB-231 breast) [µM] | GI50 (U251 CNS) [µM] | TGI (U251 CNS) [µM] | GI50 (T-47D breast) [µM] | TGI (T-47D breast) [µM] | GI50 (HCC-2998 colon) [µM] | TGI (HCC-2998 colon) [µM] | GI50 (SNB-75 CNS) [µM] | TGI (SNB-75 CNS) [µM] | GI50 (OVCAR-3 ovarian) [µM] | TGI (OVCAR-3 ovarian) [µM] | GI50 (SF-295 CNS) [µM] | TGI (SF-295 CNS) [µM] | GI50 (OVCAR-5 ovarian) [µM] | TGI (OVCAR-5 ovarian) [µM] | GI50 (TK-10 renal) [µM] | TGI (TK-10 renal) [µM]
1 | CN(C)CCNC(=O)c1cccc2cc3ccccc3nc12 | 1.32 | 3.12 | 2.35 | 9.65 | 1.02 | 4.91 | 1.95 | 10.6 | 1.63 | 5.9 | 2.01 | 6.22 | 1.36 | 4.22 | 1.26 | 4.62 | 2.27 | > 24.3 | 1.23 | 4.08
2 | Nc1ccn([C@H]2C[C@@H](O)[C@@H](CO)S2)c(=O)n1 |  | > 100 | > 100 | > 100 | > 100 | > 100 | > 100 | > 100 | > 100 | > 100 | > 44 | > 100 | > 100 | > 100 | > 100 | > 100 | > 100 | > 100 | > 100 | > 100
3 | C/C=C(\C)C(=O)O[C@@H]1C(O)[C@H]2OC(COC(=O)CCC(=O)CCCCCC[C@H](CCCCC)O[C@@H]3OC(C)[C@H](OC(C)=O)C(O)[C@H]3O2)[C@H]1OC(=O)/C=C/c1ccccc1 (some centres undefined) | 0.0265 | 2.29 | < 0.01 | < 0.0114 | < 0.01 | 6.39 | < 0.01 | 0.761 | 1.79 | > 100 | < 0.01 | 0.747 | 0.0284 | 13.7 | < 0.01 | 1.15 | 2.16 | > 64.2 | 0.0235 | 5.98
4 | N#CC1C(=N)Cc2ccccc2-c2ccccc21 (centres undefined) | 5.72 | 30.6 | 8.88 | 35 | 4.15 | 20.6 | 5.61 | 73.3 | 9.96 | 26 | 2.76 | 9.81 | 3.6 | 13 | 2.21 | 9.36 | 9.04 | > 100 | 20.2 | 63.6
5 | COc1cc2cc(Oc3ccc(NC(=O)Nc4ccccc4)cc3)c(C)nc2cc1OCCN1CCCCC1 | 6.22 | 13 | 6.39 | 12.1 | 5.32 | 11.4 | 6.12 | 14.5 | 5.62 | 10.5 | 3.76 | 8.74 | 6.31 | 13.3 | 6 | 11.2 | 6 | 11.5 | 8.3 | 17.3
6 | CC[N+](CC)=c1ccc2nc3c(cc(NCc4ccccc4)c4ccccc43)oc-2c1 | 0.149 | 0.567 | 0.214 | 1.72 | 0.196 | 0.962 | 0.337 | 2.3 | 0.338 | 1.26 | 0.385 | 0.808 | 0.0951 | 0.557 | 0.2 | 0.51 | 0.681 | 2.19 | 0.671 | 2.29
